According to ChEMBL document CHEMBL1153720, “Three dimensional pharmacophore modelling for c-Kit receptor tyrosine kinase inhibitors” (Eur J Med Chem, 2010):

Biological target: Mast/stem cell growth factor receptor Kit (Homo sapiens, UniProt P10721)
Test: Inhibition of c-Kit by HTRF method

Sequence of Mast/stem cell growth factor receptor Kit (P10721 whole entry): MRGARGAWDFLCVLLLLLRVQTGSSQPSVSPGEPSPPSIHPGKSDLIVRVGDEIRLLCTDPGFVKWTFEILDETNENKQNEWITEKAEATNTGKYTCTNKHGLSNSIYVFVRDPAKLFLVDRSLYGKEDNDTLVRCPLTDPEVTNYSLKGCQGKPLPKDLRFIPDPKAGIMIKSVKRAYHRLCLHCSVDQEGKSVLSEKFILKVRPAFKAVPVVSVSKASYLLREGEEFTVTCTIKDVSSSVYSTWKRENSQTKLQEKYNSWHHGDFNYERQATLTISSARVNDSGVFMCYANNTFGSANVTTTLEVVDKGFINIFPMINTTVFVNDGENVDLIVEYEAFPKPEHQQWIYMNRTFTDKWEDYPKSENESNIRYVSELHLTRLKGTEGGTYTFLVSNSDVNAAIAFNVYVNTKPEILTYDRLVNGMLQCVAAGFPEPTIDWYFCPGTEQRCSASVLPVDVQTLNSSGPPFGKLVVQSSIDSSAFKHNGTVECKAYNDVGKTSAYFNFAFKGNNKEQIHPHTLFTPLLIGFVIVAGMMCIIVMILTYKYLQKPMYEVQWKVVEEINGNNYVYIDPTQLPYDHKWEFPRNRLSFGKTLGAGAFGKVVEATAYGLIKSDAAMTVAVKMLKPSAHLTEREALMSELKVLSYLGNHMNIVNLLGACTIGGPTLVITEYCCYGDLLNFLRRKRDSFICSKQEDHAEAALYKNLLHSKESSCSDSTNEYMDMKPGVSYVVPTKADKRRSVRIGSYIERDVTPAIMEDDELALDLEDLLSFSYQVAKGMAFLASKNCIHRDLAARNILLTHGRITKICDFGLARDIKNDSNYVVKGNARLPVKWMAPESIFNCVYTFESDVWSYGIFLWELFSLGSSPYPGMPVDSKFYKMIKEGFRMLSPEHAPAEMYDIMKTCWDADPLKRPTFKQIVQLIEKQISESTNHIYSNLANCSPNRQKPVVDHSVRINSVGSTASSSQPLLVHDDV

Cc1ccccc1NC(=O)Nc1ccc(-c2c(C)sc3ncnc(N)c23)c(Cl)c1
IC50: 200 nM
